Measurements published in patent US20220281821A1, “INDAZOLE COMPOUNDS AND THEIR PHARMACEUTICAL COMPOSITIONS” (Jinan University, priority 2019, published 2022).

What was measured:
[1] = Pharmacokinetic evaluation in SD rats; format: in vivo
Description: Pharmacokinetics and oral bioavailability were tested in SD rats. According to the solubility of the drug, a single dose was administered orally, intravenously or by intraperitoneal injection. Animal blood samples were collected at different time points (0, 0.5, 1, 2, 4, 6, 8, and 24 hours), anticoagulated with heparin, and centrifuged to take the supernatant. Blood samples were analyzed by HPLC-MS. DAS2.1 was used for data analysis to detect half-life (T1/2), maximum blood concentration (Cmax), time to peak (Tmax), area under the drug-time curve (AUC), and bioavailability (BA) and other pharmacokinetic data.

[2] = Rat hepatocyte stability experiment; format: in vitro ADME; details: for Residual percentage (%) 0 min / Residual percentage (%) 5 min / Residual percentage (%) 15 min / Residual percentage (%) 30 min / Residual percentage (%) 60 min / Residual percentage (%) 120 min: rat hepatocytes, average value; for half-life at 1 μM: rat, rat hepatocytes (suspension)
Description: In William medium E, dilute the 37° C. rat hepatocyte suspension to an appropriate density (viable cell density=2×10^6 cells/mL). In addition, a 2× quantification solution (the concentration of the test compound was 2 μM) was additionally prepared in William's medium E. The hepatocyte solution and 2× quantification solution were preheated in a water bath of 37° C. 40 µL of the preheated hepatocyte solution (2×10^6 cells/mL) was added into the designated wells for 5, 15, 30, 60, and 120 min, and add 40 µL of the preheated 2× quantification solution and start timing. An assay plate was placed in a 37° C., 5% CO2 incubator with shaking at 110 rpm. At 5, 15, 30, 60, and 120 minutes, 240 μL of ACN containing IS was added to each well. The plate was then sealed and stored in a −35° C. freezer. After collecting at all time points, the plate was shaken for 2 minutes and then centrifuging was performed for 15 minutes at 6000 rmp. 100 μL of supernatant from each well was transferred to a 96-well sample plate containing 100 μL of water for LC/MS analysis, determination of compound concentrations, calculation of rate constants and half-lives.

TRKs (TRK1, TRK2, TRK3) = test: Kinase activity on TRKs, summary statements; format: biochemical; details: summary statement
Excerpt: Kinase activity assay: Z′-LYTE™ technology (detection by fluorescence, enzyme-conjugated format, based on the difference in sensitivity of phosphorylated and non-phosphorylated peptides to proteolytic cleavage) was applied, and using the principle of fluorescence resonance energy transfer (FRET), a Z′-LYTE™ FRET peptide substrate (Z′-LYTE™ Tyrosine 1 Peptide Substrate, Invitrogen, PV3190), and a secondary reaction were used to detect the inhibitory activity of the compounds on TRKs (TRK1, TRK2, TRK3) (life technologies, PV3144, PV3616, PV3617).
Enzymatic reaction: In a 384-well plate, 5 μL of an enzyme-substrate system (50 mM HEPES pH 7.5, 0.01% BRIJ-35, 10 mM MgCl2, 1 mM EGTA, 2 μM Tyr 01 Peptide Substrate) was added and 5 nL of compound (concentration gradient) was transferred thereto by using the echo520 ultramicro liquid pipetting system. After shaking for 10-20 min at room temperature, 200 nL, 12.5 nL and 25 nL of ATP (final concentrations are 400 uM, 25 uM and 50 uM, respectively) were transferred by using the echo520 ultramicro liquid pipetting system. After shaking and mixing, centrifuging was performed. A reaction was carried out at 30° C. in the dark for 1.5 hours.
Assay reaction: 2.54 of Development Solution (1:128 dilution) was added in each well, and incubated at 37° C. in the dark for 1 hour, and then 5 μL of Stop Reagent was added.
Plate reading: fluorescence signals were detected using a Perkin Elmer EnVision Multimode Plate Reader (excitation at 400 nm, and emission at 460 nm, and 535 nm).
Calculation: the inhibition rate of each well was calculated by the fully active well and control signal wells. The data were analyzed as follows:
Phosphorylation ratio=1−{(emission ratio×F100%−C100%)/[C0%−C100%+emission ratio×(F100%−F0%)]}×100;
Inhibition rate=100×(1−compound phosphorylation ratio/negative control phosphorylation ratio).
IC50 values were calculated by using GraphPad Prism 5.0 software.

BaF3-ETV6-NTRK2 = target: T1, BaF3-ETV6-NTRK2 (Homo sapiens, UniProt Q16620); test: Cell proliferation inhibition (CCK-8), BaF3-ETV6-NTRK2 stable strain; format: cell-based, mouse; details: BaF3-ETV6-NTRK2, 72 hours
T1 construct: fused on or other part: P41212 (Transcription factor ETV6)
T1 sequence (Q16620 538-822 limits assumed): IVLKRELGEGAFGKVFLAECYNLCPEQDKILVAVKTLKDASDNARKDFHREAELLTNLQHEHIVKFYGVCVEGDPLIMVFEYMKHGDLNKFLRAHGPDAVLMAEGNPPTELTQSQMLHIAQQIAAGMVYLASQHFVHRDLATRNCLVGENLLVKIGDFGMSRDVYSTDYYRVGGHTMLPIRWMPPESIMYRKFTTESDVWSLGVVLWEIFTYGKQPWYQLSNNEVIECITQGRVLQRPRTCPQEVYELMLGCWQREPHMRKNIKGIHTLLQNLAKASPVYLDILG
In short: (§1)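 Ba/F3 cells stably electroporated with ETV6-NTRK3, CD74-NTRK1 or ETV6-NTRK2, selected with G418 and grown without IL3, then cloned by limiting dilution.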

BaF3-CD74-NTRK1 = target: T2, BaF3-CD74-NTRK1 (Homo sapiens, UniProt P04629); test: Cell proliferation inhibition (CCK-8), BaF3-CD74-NTRK1 stable strain; format: cell-based, mouse; details: BaF3-CD74-NTRK1, 72 hours
T2 construct: fused on or other part: P04233 (HLA class II histocompatibility antigen gamma chain)
T2 sequence (P04629 510-796 limits assumed): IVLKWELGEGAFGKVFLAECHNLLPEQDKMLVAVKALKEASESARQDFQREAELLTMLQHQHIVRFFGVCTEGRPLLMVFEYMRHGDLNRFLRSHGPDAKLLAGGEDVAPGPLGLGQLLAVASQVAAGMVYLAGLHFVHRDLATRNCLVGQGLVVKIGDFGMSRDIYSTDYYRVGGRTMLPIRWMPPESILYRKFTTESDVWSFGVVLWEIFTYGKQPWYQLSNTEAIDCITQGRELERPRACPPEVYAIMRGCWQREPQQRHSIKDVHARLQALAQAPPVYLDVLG
In short: as §1

Ba/F3-TRK stable strains = test: Cell proliferation of Ba/F3-TRK stable strains, summary statements; format: cell-based, mouse; details: summary statement
Description: The brief steps of stable strain construction are as follows: construct a pCDNA3.1(+) plasmid vector carrying genes such as CD74-NTRK1, ETV6-NTRK2 and ETV6-NTRK3; the plasmid was electroporated into Ba/F3 cells using the Amaxa® Cell Line Nucleofector® Kit V; 48 hours after electroporated, G418 with a final concentration of 1000 μg/ml was added for screening for two weeks, and then IL3 was removed, and continued screening to obtain polyclonal stable strains; then single clones were selected by a limiting dilution method. The stable strains were then identified using positive drugs, WB and gene sequencing; and the monoclonal clones that were identified as completely correct may be used for the study of cell proliferation inhibitory activity of inhibitors.
Cell proliferation inhibition activity study: the cells in the logarithmic growth phase were seeded into 96-well plates at 8000-12000 cells/well, and inhibitors at different concentrations (0-10 μM) were added the next day, and incubation was continued for 72 hours; then 10 μL of CCK-8 reagent was added to each well, and the incubation was continued for 1-3 hours; and then use a super microplate reader to measure their absorbance values at 450 nm and 650 nm. The half-inhibition concentration (IC50) was calculated using GraphPad Prism 8.0.0.

BaF3-ETV6-NTRK3 = target: T3, BaF3-ETV6-NTRK3 (Homo sapiens, UniProt Q16288); test: Cell proliferation inhibition (CCK-8), BaF3-ETV6-NTRK3 stable strain; format: cell-based, mouse; details: BaF3-ETV6-NTRK3, 72 hours
T3 construct: fused on or other part: P41212 (Transcription factor ETV6)
T3 sequence (Q16288 whole entry, the tested form may be a part): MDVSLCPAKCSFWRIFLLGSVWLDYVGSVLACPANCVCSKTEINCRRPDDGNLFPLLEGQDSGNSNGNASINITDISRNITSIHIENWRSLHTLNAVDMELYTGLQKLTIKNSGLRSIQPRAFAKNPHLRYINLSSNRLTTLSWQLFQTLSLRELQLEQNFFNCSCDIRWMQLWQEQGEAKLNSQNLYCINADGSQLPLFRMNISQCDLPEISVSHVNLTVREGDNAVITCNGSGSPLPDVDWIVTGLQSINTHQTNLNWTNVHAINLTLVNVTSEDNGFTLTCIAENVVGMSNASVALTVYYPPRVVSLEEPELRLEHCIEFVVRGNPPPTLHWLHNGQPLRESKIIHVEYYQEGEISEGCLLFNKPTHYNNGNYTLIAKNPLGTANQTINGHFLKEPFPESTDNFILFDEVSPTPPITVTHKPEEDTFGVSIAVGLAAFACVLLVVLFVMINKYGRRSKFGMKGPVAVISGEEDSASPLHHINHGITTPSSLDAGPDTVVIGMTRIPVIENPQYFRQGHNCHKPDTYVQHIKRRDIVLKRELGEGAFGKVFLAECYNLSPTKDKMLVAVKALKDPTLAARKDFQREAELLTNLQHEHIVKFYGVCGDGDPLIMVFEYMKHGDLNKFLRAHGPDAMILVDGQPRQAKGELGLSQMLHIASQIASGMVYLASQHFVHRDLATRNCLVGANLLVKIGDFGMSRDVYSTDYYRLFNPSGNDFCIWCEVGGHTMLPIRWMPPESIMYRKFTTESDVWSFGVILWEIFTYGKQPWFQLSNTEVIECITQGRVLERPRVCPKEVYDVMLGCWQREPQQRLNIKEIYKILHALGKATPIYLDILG
In short: as §1

TRKA = target: T4, TRKA (Homo sapiens, UniProt P04629); test: Z′-LYTE kinase activity assay, TRKA; format: biochemical; details: ATP 400 uM
T4 construct: purchased life technologies PV3144
T4 sequence (P04629 440-796 limits assumed): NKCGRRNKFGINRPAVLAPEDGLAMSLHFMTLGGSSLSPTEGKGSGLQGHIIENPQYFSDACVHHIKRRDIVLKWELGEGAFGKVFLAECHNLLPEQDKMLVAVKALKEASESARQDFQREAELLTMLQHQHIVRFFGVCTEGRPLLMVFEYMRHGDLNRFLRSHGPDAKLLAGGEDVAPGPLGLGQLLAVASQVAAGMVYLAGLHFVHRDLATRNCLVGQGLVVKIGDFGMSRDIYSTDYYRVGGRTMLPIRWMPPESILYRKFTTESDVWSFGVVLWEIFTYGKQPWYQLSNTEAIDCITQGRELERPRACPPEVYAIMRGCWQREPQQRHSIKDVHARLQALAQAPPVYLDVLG
In short: (§2)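 IC50 values were fitted to inhibition calculated from the emission-ratio-based phosphorylation ratio relative to negative control, across a compound concentration gradient.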

TRKC = target: T5, TRKC (Homo sapiens, UniProt Q16288); test: Z′-LYTE kinase activity assay, TRKC; format: biochemical; details: ATP 50 uM
T5 construct: purchased life technologies PV3617
T5 sequence (Q16288 32-839): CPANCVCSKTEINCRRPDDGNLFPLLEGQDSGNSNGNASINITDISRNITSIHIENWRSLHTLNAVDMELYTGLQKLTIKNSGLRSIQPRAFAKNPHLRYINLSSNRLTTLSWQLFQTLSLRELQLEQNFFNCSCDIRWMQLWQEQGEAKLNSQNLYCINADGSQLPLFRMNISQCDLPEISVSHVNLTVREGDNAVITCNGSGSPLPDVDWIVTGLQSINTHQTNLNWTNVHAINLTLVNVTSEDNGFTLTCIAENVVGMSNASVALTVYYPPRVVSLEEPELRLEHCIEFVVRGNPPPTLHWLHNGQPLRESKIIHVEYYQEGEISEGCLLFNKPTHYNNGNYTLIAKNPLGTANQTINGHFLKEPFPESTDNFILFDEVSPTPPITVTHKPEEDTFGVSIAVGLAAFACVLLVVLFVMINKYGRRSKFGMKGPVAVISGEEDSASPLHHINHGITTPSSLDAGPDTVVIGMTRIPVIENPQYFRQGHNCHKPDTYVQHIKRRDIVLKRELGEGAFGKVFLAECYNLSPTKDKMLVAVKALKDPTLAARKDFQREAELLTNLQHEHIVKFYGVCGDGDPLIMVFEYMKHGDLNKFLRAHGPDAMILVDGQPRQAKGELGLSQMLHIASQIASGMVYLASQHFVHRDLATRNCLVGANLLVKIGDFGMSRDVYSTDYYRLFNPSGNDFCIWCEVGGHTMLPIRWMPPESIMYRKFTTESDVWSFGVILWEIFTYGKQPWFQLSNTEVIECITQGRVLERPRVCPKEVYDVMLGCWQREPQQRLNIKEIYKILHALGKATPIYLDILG
In short: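 Recombinant TRK kinase tested in a Z′-LYTE FRET assay with 2 μM Tyr 01 peptide substrate in 50 mM HEPES pH 7.5, 10 mM MgCl2, 1 mM EGTA, 0.01% BRIJ-35. IC50 obtained by curve fitting.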

TRKB = target: T6, TRKB (Homo sapiens, UniProt Q16620); test: Z′-LYTE kinase activity assay, TRKB; format: biochemical; details: ATP 25 uM
T6 construct: purchased life technologies PV3616
T6 sequence (Q16620 32-822): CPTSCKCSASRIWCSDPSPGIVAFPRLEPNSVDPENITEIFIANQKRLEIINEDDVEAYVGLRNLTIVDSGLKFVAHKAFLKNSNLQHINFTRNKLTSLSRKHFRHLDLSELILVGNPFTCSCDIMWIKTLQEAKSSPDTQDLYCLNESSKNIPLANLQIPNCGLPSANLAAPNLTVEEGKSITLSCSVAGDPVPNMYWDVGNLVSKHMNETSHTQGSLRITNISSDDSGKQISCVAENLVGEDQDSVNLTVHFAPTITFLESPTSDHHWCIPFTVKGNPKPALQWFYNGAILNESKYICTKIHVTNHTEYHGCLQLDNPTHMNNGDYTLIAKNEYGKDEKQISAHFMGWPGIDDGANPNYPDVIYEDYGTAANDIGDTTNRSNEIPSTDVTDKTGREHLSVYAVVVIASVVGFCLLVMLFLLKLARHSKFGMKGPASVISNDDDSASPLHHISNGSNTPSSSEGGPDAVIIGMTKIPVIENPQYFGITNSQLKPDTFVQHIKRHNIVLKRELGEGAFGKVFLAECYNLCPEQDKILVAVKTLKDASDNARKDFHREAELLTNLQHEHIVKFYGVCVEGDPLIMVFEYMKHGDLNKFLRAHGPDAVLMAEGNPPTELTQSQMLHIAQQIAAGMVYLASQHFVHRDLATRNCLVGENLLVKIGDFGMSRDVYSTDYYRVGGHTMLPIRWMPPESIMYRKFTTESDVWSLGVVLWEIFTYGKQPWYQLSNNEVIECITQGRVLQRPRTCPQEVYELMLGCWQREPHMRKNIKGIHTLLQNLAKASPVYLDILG
In short: as §2

Compound: C[C@@H](Nc1ccc2[nH]nc(/C=C/c3ccccn3)c2c1)c1cc(F)cc(F)c1 [DYX-244-1, (R,E)-N-(1-(3,5-difluorophenyl)ethyl)-3-(2-(pyridin-2-yl)vinyl)-1H-indazol-5-amine]
- Area under the drug-time curve (0-t) ([1]; intravenous injection, 2 mg/kg): 3.68 µM·h
- Area under the drug-time curve (0-∞) ([1]; intravenous injection, 2 mg/kg): 3.69 µM·h
- Half-life ([1]; intravenous injection, 2 mg/kg): 83.4 min
- Maximum blood concentration ([1]; intravenous injection, 2 mg/kg): 6.77 µM
- Removal rate ([1]; intravenous injection, 2 mg/kg): 24 mL/min/kg
- Time to Peak ([1]; intravenous injection, 2 mg/kg): 0.08 h
- Bioavailability (%) ([1]; oral 10 mg/kg vs intravenous 2 mg/kg): 8.79%
- Area under the drug-time curve (0-t) ([1]; oral administration, 10 mg/kg): 1.62 µM·h
- Area under the drug-time curve (0-∞) ([1]; oral administration, 10 mg/kg): 1.64 µM·h
- Half-life ([1]; oral administration, 10 mg/kg): 67.8 min
- Maximum blood concentration ([1]; oral administration, 10 mg/kg): 0.36 µM
- Time to Peak ([1]; oral administration, 10 mg/kg): 2.00 h
- Residual percentage (%) 0 min [2]: 100.00%
- Residual percentage (%) 5 min [2]: 71.83%
- Residual percentage (%) 15 min [2]: 48.63%
- Residual percentage (%) 30 min [2]: 14.84%
- Residual percentage (%) 60 min [2]: 8.20%
- Residual percentage (%) 120 min [2]: 5.40%
- half-life at 1 μM [2]: 11.1 min
- inhibitory activity against TRKs kinase (in words) (TRKs (TRK1, TRK2, TRK3)): strong inhibitory activity

Compound: C[C@@H](Nc1cnc2[nH]nc(/C=C/c3ccccn3)c2c1)c1cc(F)cc(F)c1 [DYX-318, (R,E)-N-(1-(3,5-difluorophenyl)ethyl)-3-(2-(pyridin-2-yl)vinyl)-1H-pyrazolo[3,4-b]pyridin-5-amine]
- Residual percentage (%) 0 min [2]: 100.00%
- Residual percentage (%) 5 min [2]: 27.83%
- Residual percentage (%) 15 min [2]: 12.24%
- Residual percentage (%) 30 min [2]: 1.36%
- Residual percentage (%) 60 min [2]: 0.27%
- Residual percentage (%) 120 min [2]: 0.20%
- half-life at 1 μM [2]: 2.71 min
- inhibitory activity against TRKs kinase (in words) (TRKs (TRK1, TRK2, TRK3)): strong inhibitory activity
- IC50 (BaF3-ETV6-NTRK2): 33.6 nM
- IC50 (BaF3-CD74-NTRK1): 9.6 nM
- inhibitory activity against cell proliferation of the Ba/F3-TRK stable strains (in words) (Ba/F3-TRK stable strains): strong inhibitory activity
- IC50 (BaF3-ETV6-NTRK3): 9.1 nM

Compound: C[C@]12CC[C@H]3[C@@H](CCC4=CC(=O)CC[C@@]43C)[C@@H]1CC[C@@H]2O [Testosterone, reference compound]
- Residual percentage (%) 0 min [2]: 100.00%
- Residual percentage (%) 5 min [2]: 21.21%
- Residual percentage (%) 15 min [2]: 5.78%
- Residual percentage (%) 30 min [2]: BQL
- Residual percentage (%) 60 min [2]: BQL
- Residual percentage (%) 120 min [2]: BQL
- half-life at 1 μM [2]: 2.23 min

Compound: Clc1cccc(Cc2ccc3[nH]nc(C#Cc4ccccn4)c3c2)c1 [DYX-134Q, 5-(3-chlorobenzyl)-3-(pyridin-2-ylethynyl)-1H-indazole]
- IC50 (TRKA): 91.9 nM
- IC50 (BaF3-ETV6-NTRK2): 4620 nM
- IC50 (BaF3-CD74-NTRK1): > 10000 nM
- IC50 (TRKC): 40.3 nM
- IC50 (BaF3-ETV6-NTRK3): 2650 nM
- IC50 (TRKB): 124 nM

Compound: Fc1ccc(Cc2ccc3[nH]nc(/C=C/c4ccccn4)c3c2)cc1 [DYX-042, (E)-5-(4-fluorobenzyl)-3-(2-(pyridin-2-yl)vinyl)-1H-indazole]
- IC50 (TRKA): 251 nM
- IC50 (BaF3-ETV6-NTRK2): > 10000 nM
- IC50 (BaF3-CD74-NTRK1): 8710 nM
- IC50 (TRKC): 114 nM
- IC50 (BaF3-ETV6-NTRK3): 8380 nM
- IC50 (TRKB): 281 nM

Compound: Fc1cc(F)cc(Cc2ccc3[nH]nc(/C=C/c4ccccc4)c3c2)c1 [DYX-07, (E)-5-(3,5-difluorobenzyl)-3-styryl-1H-indazole]
- IC50 (TRKA): 10.6 nM
- IC50 (BaF3-ETV6-NTRK2): 968 nM
- IC50 (BaF3-CD74-NTRK1): 211 nM
- IC50 (TRKC): 104 nM
- IC50 (BaF3-ETV6-NTRK3): 284 nM
- IC50 (TRKB): 40.3 nM
